Experimental data: US12516016B2, “GPX4 inhibitors, pharmaceutical compositions thereof, and their use for treating GPX4-mediated diseases” (EUBULUS BIOTHERAPEUTICS (HONG KONG) LIMITED, priority 2020, dated 2026)

What follows are molecules tested on hepatocellular carcinoma cell line Hub-7 (assay: Cell proliferation assay (CELL-TITER GLO cell viability)). Details: 24 h, Hub-7 cells, 24 h incubation, read-out: Inhibition of Cell Proliferation EC50.
Assay type: cell-based
How it was run: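 […] cells (4,000/well) seeded overnight, then exposed 24 h to compound from 10 μM in 3-fold serial dilutions. Viability read by CELL-TITER GLO luminescence; EC50 values derived.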

EC50 [nM] | SMILES
≤ 100 | C#CC(=O)N(c1cccc(Cl)c1)C(C(=O)NCC1CC1)c1ccccc1 (centres unmarked) [A142, N-(3-Chlorophenyl)-N-(2-((cyclopropylmethyl)amino)-2-oxo-1-phenylethyl)-propiolamide]
≤ 100 | C#CC(=O)N(c1ccc2c(c1)C(=O)OC2)C(C(=O)NCc1ccccc1)c1ccccc1 (centres unmarked) [A143, N-(2-(Benzylamino)-2-oxo-1-phenylethyl)-N-(3-oxo-1,3-dihydroisobenzofuran-5-yl)propiolamide]
≤ 100 | C#CC(=O)N(C1(C(=O)NCc2ccccc2)CCOCC1)C1(c2ccccc2)CC1 [A144, N-Benzyl-4-(N-(1-phenylcyclopropyl)propiolamido)tetrahydro-2H-pyran-4-carboxamide]
≤ 100 | C#CC(=O)N(c1cc(Cl)ccc1Cl)C(C(=O)NCc1ccccc1)c1ccccc1 (centres unmarked) [A145, N-(2-(Benzylamino)-2-oxo-1-phenylethyl)-N-(2,5-dichlorophenyl)propiolamide]
≤ 100 | C#CC(=O)N(c1cc2c(cc1I)OCO2)C(C(=O)NCc1ccccc1)c1ccccc1 (centres unmarked) [A146, N-(2-(Benzylamino)-2-oxo-1-phenylethyl)-N-(6-iodobenzo[d][1,3]dioxol-5-yl)-propiolamide]
100 to 500 | C#CC(=O)N(c1cccn2cnnc12)C(C(=O)NCc1ccccc1)c1ccccc1 (centres unmarked) [A147, N-([1,2,4]Triazolo[4,3-a]pyridin-8-yl)-N-(2-(benzylamino)-2-oxo-1-phenylethyl)-propiolamide]
≤ 100 | C#CC(=O)N(c1cccc2c1CCC2=O)C1(C(=O)NCc2ccccc2)CCOCC1 [A148, N-Benzyl-4-(N-(1-oxo-2,3-dihydro-1H-inden-4-yl)propiolamido)tetrahydro-2H-pyran-4-carboxamide]
≤ 100 | C#CC(=O)N(c1ccc2c(c1)C(=O)OC2)C1(C(=O)NCc2ccccc2)CCOCC1 [A149, N-Benzyl-4-(N-(3-oxo-1,3-dihydroisobenzofuran-5-yl)propiolamido)tetrahydro-2H-pyran-4-carboxamide]
100 to 500 | C#CC(=O)N(c1ccc2[nH]ncc2c1)C1(C(=O)NCc2ccccc2)CCOCC1 [A150, 4-(N-(1H-Indazol-5-yl)propiolamido)-N-benzyltetrahydro-2H-pyran-4-carboxamide]
100 to 500 | C#CC(=O)N(c1ccc2c(c1)OCO2)C1(C(=O)NCc2ccccc2)CCOCC1 [A151, 4-(N-(Benzo[d][1,3]dioxol-5-yl)propiolamido)-N-benzyltetrahydro-2H-pyran-4-carboxamide]
2000 to 10000 | C#CC(=O)N(c1ccc2[nH]ccc2c1)C1(C(=O)NCc2ccccc2)CCOCC1 [A152, 4-(N-(1H-Indol-5-yl)propiolamido)-N-benzyltetrahydro-2H-pyran-4-carboxamide]
≤ 100 | C#CC(=O)N(c1ccc2c(ccn2C)c1)C1(C(=O)NCc2ccccc2)CCOCC1 [A153, N-Benzyl-4-(N-(1-methyl-1H-indol-5-yl)propiolamido)tetrahydro-2H-pyran-4-carboxamide]
500 to 2000 | C#CC(=O)N(c1ccc2ncn(C)c2c1)C1(C(=O)NCc2ccccc2)CCOCC1 [A154, N-Benzyl-4-(N-(1-methyl-1H-benzo[d]imidazol-6-yl)propiolamido)tetrahydro-2H-pyran-4-carboxamide]
100 to 500 | C#CC(=O)N(c1ccc2scnc2c1)C1(C(=O)NCc2ccccc2)CCOCC1 [A155, 4-(N-(Benzo[d]thiazol-5-yl)propiolamido)-N-benzyltetrahydro-2H-pyran-4-carboxamide]
500 to 2000 | C#CC(=O)N(c1ccc2c(c1)ncn2C)C1(C(=O)NCc2ccccc2)CCOCC1 [A156, N-Benzyl-4-(N-(1-methyl-1H-benzo[d]imidazol-5-yl)propiolamido)tetrahydro-2H-pyran-4-carboxamide]
≤ 100 | C#CC(=O)N(c1ccc(OC)cc1OC)C1(C(=O)NCc2ccccc2)CCOCC1 [A157, N-Benzyl-4-(N-(2,4-dimethoxyphenyl)propiolamido)tetrahydro-2H-pyran-4-carboxamide]
2000 to 10000 | C#CC(=O)N(C1CCC(=O)N(C)C1)C(C(=O)NCc1ccccc1)c1ccccc1 (centres unmarked) [A158, N-(2-(Benzylamino)-2-oxo-1-phenylethyl)-N-(1-methyl-6-oxopiperidin-3-yl)-propiolamide]
500 to 2000 | C#CC(=O)N(c1cccc(Cl)c1)C1(C(=O)NCS(=O)(=O)c2ccc(C)cc2)CCOCC1 [A159, 4-(N-(3-Chlorophenyl)propiolamido)-N-(tosylmethyl)tetrahydro-2H-pyran-4-carboxamide]
≤ 100 | C#CC(=O)N(c1cccc2cnn(C)c12)C(C(=O)NCc1ccccc1)c1ccccc1 (centres unmarked) [A160, N-(2-(Benzylamino)-2-oxo-1-phenylethyl)-N-(1-methyl-1H-indazol-7-yl)propiolamide]
≤ 100 | C#CC(=O)N(c1cccc2nsnc12)C1(C(=O)NCc2ccccc2)CCOCC1 [A161, 4-(N-(Benzo[c][1,2,5]thiadiazol-4-yl)propiolamido)-N-benzyltetrahydro-2H-pyran-4-carboxamide]
≤ 100 | C#CC(=O)N(c1ccc2c(cnn2C)c1)C1(C(=O)NCc2ccccc2)CCOCC1 [A162, N-Benzyl-4-(N-(1-methyl-1H-indazol-5-yl)propiolamido)tetrahydro-2H-pyran-4-carboxamide]

EC50 [nM] | SMILES
500 to 2000 | C#CC(=O)N(c1ccn2cnnc2c1)C1(C(=O)NCc2ccccc2)CCOCC1 [A163, 4-(N-([1,2,4]Triazolo[4,3-a]pyridin-7-yl)propiolamido)-N-benzyltetrahydro-2H-pyran-4-carboxamide]
≤ 100 | C#CC(=O)N(c1ccc2c(cnn2C)c1)C1(C(=O)NCc2ccccc2)CCC(=O)CC1 [A164, N-Benzyl-1-(N-(1-methyl-1H-indazol-5-yl)propiolamido)-4-oxocyclohexane-1-carboxamide]
100 to 500 | C#CC(=O)N(c1ccc2c(cnn2C)c1)C1(C(=O)NCc2ccccc2)CCCC(=O)C1 (centres unmarked) [A165, N-Benzyl-1-(N-(1-methyl-1H-indazol-5-yl)propiolamido)-3-oxocyclohexane-1-carboxamide]
100 to 500 | C#CC(=O)N(CCc1ccccc1)C1(C(=O)NCc2ccccc2)CCCC(C(=O)OC)C1 (centres unmarked) [A166, Methyl 3-(benzylcarbamoyl)-3-(N-phenethylpropiolamido)cyclohexane-1-carboxylate]
100 to 500 | C#CC(=O)N(Cc1cccc(O)c1)C1(C(=O)NCc2ccccc2)CCCC(C(=O)OC)C1 (centres unmarked) [A167, Methyl 3-(benzylcarbamoyl)-3-(N-(3-hydroxybenzyl)propiolamido)cyclohexane-1-carboxylate]
500 to 2000 | C#CC(=O)N(C1CCC1)C1(C(=O)NCc2ccccc2)CCCC(C(=O)OC)C1 (centres unmarked) [A168, Methyl 3-(benzylcarbamoyl)-3-(N-cyclobutylpropiolamido)cyclohexane-1-carboxylate]
> 10000 | C#CC(=O)N(CCc1ccccc1)C1(C(=O)NCc2ccccc2)CCCC(C(=O)O)C1 (centres unmarked) [A169, 3-(Benzylcarbamoyl)-3-(N-phenethylpropiolamido)cyclohexane-1-carboxylic acid]
> 10000 | C#CC(=O)N(Cc1cccc(O)c1)C1(C(=O)NCc2ccccc2)CCCC(C(=O)O)C1 (centres unmarked) [A170, 3-(Benzylcarbamoyl)-3-(N-(3-hydroxybenzyl)propiolamido)cyclohexane-1-carboxylic acid]
2000 to 10000 | C#CC(=O)N(c1cccc(Cl)c1)C1(C(=O)NCc2ccccc2)CCCC(O)C1 (centres unmarked) [A171, N-Benzyl-1-(N-(3-chlorophenyl)propiolamido)-3-hydroxycyclohexane-carboxamide]
≤ 100 | C#CC(=O)N(c1cccc(Cl)c1)C1(C(=O)NCc2ccccc2)CCCC(=O)C1 (centres unmarked) [A172, N-Benzyl-1-(N-(3-chlorophenyl)propiolamido)-3-oxocyclohexanecarboxamide]
≤ 100 | C#CC(=O)N(c1cccc(Cl)c1)C1(C(=O)NCc2ccccc2)CCCC(C(=O)OC)C1 (centres unmarked) [A173, Methyl 3-(benzylcarbamoyl)-3-(N-(3-chlorophenyl)propiolamido)cyclohexane-carboxylate]
≤ 100 | C#CC(=O)N(c1cccc(Cl)c1)C1(C(=O)NCc2ccccc2)CCCOC1 (centres unmarked) [A174, N-Benzyl-3-(N-(3-chlorophenyl)propiolamido)tetrahydro-2H-pyran-3-carboxamide]
≤ 100 | C#CC(=O)N(c1cccc(Cl)c1)C1(C(=O)NCc2ccccc2)CCC(=O)CC1 [A175, N-Benzyl-1-(N-(3-chlorophenyl)propiolamido)-4-oxocyclohexane-1-carboxamide]
≤ 100 | C#CC(=O)N(c1ccc2c(cnn2C)c1)C1(C(=O)NCc2ccccc2)CCCOC1 (centres unmarked) [A176, N-Benzyl-3-(N-(1-methyl-1H-indazol-5-yl)propiolamido)tetrahydro-2H-pyran-3-carboxamide]
≤ 100 | C#CC(=O)N(c1ccc2c(cnn2C)c1)C1(C(=O)NCc2ccccc2)CCCC(C(=O)OC)C1 (centres unmarked) [A177, Methyl 3-(benzylcarbamoyl)-3-(N-(1-methyl-1H-indazol-5-yl)propiolamido)-cyclohexane-1-carboxylate]
≤ 100 | C#CC(=O)N(c1cccc(Cl)c1)C(C(=O)NCc1ccccc1C#N)c1ccccc1 (centres unmarked) [A178, N-(3-Chlorophenyl)-N-(2-((2-cyanobenzyl)amino)-2-oxo-1-phenylethyl)-propiolamide]
≤ 100 | C#CC(=O)N(c1cccc(Cl)c1)C(C(=O)NCC1CCOCC1)c1ccccc1 (centres unmarked) [A180, N-(3-Chlorophenyl)-N-(2-oxo-1-phenyl-2-(((tetrahydro-2H-pyran-4-yl)methyl)-amino)ethyl)propiolamide]
≤ 100 | C#CC(=O)N(c1cccc(Cl)c1)C(C(=O)NCC1COC1)c1ccccc1 (centres unmarked) [A181, N-(3-Chlorophenyl)-N-(2-((oxetan-3-ylmethyl)amino)-2-oxo-1-phenylethyl)-propiolamide]
≤ 100 | C#CC(=O)N(c1cccc(Cl)c1)C1(C(=O)NCc2cccc(Cl)c2)CCOCC1 [A182, N-(3-Chlorobenzyl)-4-(N-(3-chlorophenyl)propiolamido)tetrahydro-2H-pyran-4-carboxamide]
2000 to 10000 | C#CC(=O)N(c1cccc(Cl)c1)C1(C(=O)NCC(=O)N2CCCC(O)C2)CCOCC1 (centres unmarked) [A183, 4-(N-(3-Chlorophenyl)propiolamido)-N-(2-(3-hydroxypiperidin-1-yl)-2-oxoethyl)tetrahydro-2H-pyran-4-carboxamide]
